SMILES,"solubility (mole fraction) (in acetone, 253.15 K)","solubility (mole fraction) (in acetone, 258.15 K)","solubility (mole fraction) (in acetone, 263.15 K)","solubility (mole fraction) (in acetone, 268.15 K)","solubility (mole fraction) (in acetone, 273.15 K)","solubility (mole fraction) (in acetone, 278.15 K)","solubility (mole fraction) (in acetone, 283.15 K)","solubility (mole fraction) (in acetonitrile, 243.15 K)","solubility (mole fraction) (in acetonitrile, 248.15 K)","solubility (mole fraction) (in acetonitrile, 253.15 K)","solubility (mole fraction) (in acetonitrile, 258.15 K)","solubility (mole fraction) (in acetonitrile, 263.15 K)","solubility (mole fraction) (in acetonitrile, 268.15 K)","solubility (mole fraction) (in acetonitrile, 273.15 K)","solubility (mole fraction) (in acetonitrile, 278.15 K)","solubility (mole fraction) (in acetonitrile, 283.15 K)","solubility (mole fraction) (in ethyl acetate, 253.15 K)","solubility (mole fraction) (in ethyl acetate, 258.15 K)","solubility (mole fraction) (in ethyl acetate, 263.15 K)","solubility (mole fraction) (in ethyl acetate, 268.15 K)",also measured
O=C(O)c1ccccc1O,0.0913,0.0978,0.108,0.114,0.122,0.138,0.143,0.0052,0.0061,0.0071,0.0084,0.01,0.012,0.0141,0.0159,0.0185,0.0554,0.0651,0.075,0.086,"solubility (mole fraction) (in ethyl acetate, 273.15 K): 0.09; solubility (mole fraction) (in ethyl acetate, 278.15 K): 0.099; solubility (mole fraction) (in ethyl acetate, 283.15 K): 0.107; solubility (mole fraction) (in methanol, 253.15 K): 0.0605; solubility (mole fraction) (in methanol, 258.15 K): 0.065; solubility (mole fraction) (in methanol, 263.15 K): 0.0699; solubility (mole fraction) (in methanol, 268.15 K): 0.075; solubility (mole fraction) (in methanol, 273.15 K): 0.083; solubility (mole fraction) (in methanol, 278.15 K): 0.09; solubility (mole fraction) (in methanol, 283.15 K): 0.1"
NC(=O)c1ccccc1O,0.0592,0.0639,0.0703,0.077,0.0839,0.0911,0.0986,0.005,0.006,0.0071,0.0087,0.0108,0.012,0.0143,0.017,0.0199,0.0305,0.0335,0.0374,0.0406,"solubility (mole fraction) (in ethyl acetate, 273.15 K): 0.0446; solubility (mole fraction) (in ethyl acetate, 278.15 K): 0.0497; solubility (mole fraction) (in ethyl acetate, 283.15 K): 0.0547; solubility (mole fraction) (in methanol, 253.15 K): 0.012; solubility (mole fraction) (in methanol, 258.15 K): 0.0136; solubility (mole fraction) (in methanol, 263.15 K): 0.0157; solubility (mole fraction) (in methanol, 268.15 K): 0.0181; solubility (mole fraction) (in methanol, 273.15 K): 0.0204; solubility (mole fraction) (in methanol, 278.15 K): 0.0233; solubility (mole fraction) (in methanol, 283.15 K): 0.0266"

# From BigSolDB 2.1
